Molecules are shown by their SMILES.

What all share (format): cell-based
One assay concerns the target T1, RPS6KA3 (Homo sapiens, UniProt P51812).
T1 construct: endogenous in cells; host or cells: THP-1
Description: Expression proteomics in THP-1 cells: RPS6KA3 protein level. Conditions: RPS6KA3, THP-1 cells. How it is done:
(§1) THP-1 cells were seeded at a concentration of 3×10^6 cells in T175 flasks with 60 mL growth medium (RPMI1640+10% FBS). […] of a 10× compound solution prepared in growth medium (DMSO), CEREBLON_PROTAC) was added and the cells were treated for the indicated time points (6 or 24 h) at 37° C., 5% CO2. For harvesting the cells were collected into falcon tubes on ice, centrifuged and washed twice in cold PBS (Life technologies). After the last washing step the supernatant was removed and the pellets were snap-frozen in liquid N2 and stored at −80° C. and lysed in 2% SDS for 3 min at 95° C. in a thermomixer (Thermo Fisher Scientific), followed by digestion of DNA with Benzonase at 37° C. for 1.5 h. Lysate was cleared by centrifugation an protein concentration in supernatant was determined by BCA assay.
(§2) Leukemia 25, 89-100 (2011).
(§3) Samples were dried in vacuo and resuspended in 0.05% trifluoroacetic acid in water. Of the sample, 50% was injected into an Ultimate3000 nanoRLSC (Dionex, Sunnyvale, Calif.) coupled to a Q Exactive HF (Thermo Fisher Scientific). Peptides were trapped on a 5 mm×300 μm C18 column (Pepmap100, 5 μm, 300 Å, Thermo Fisher Scientific) in water with 0.05% TFA at 60° C. Separation was performed on custom 50 cm×[…] (ID) reversed-phase columns (Reprosil) at 55° C. Gradient elution was performed from 2% acetonitrile to 40% acetonitrile in 0.1% formic acid and 3.5% DMSO over 2 hours. Samples were online injected into Q-Exactive HF mass spectrometers operating with a data-dependent top 10 method. MS spectra were acquired by using 60.000 resolution and an ion target of 3×10^6. Higher energy collisional dissociation (HCD) scans were performed with 35% NCE at 30.000 resolution (at m/z 200), and the ion target settings was set to 2×10^5 so as to avoid coalescence (Werner, T. et al. Ion Coalescence of Neutron Encoded TMT 10-Plex Reporter Ions. Anal. Chem. 86, 3594-3601 (2014).
(§4) The first search was performed with 30 parts per million mass tolerance for peptide precursors and 30 mD (HCD) mass tolerance for fragment ions followed by a final search using recalibrated data with a 10 parts per million mass tolerance for peptide precursors and 20 mD (HCD) mass tolerance for fragment ions. Carbamidomethylation of cysteine residues and TMT modification of lysine residues were set as fixed modifications and methionine oxidation, and N-terminal acetylation of proteins and TMT modification of peptide N-termini were set as variable modifications. […]
(§5) Nat Biotech 29, 255-265 (2011). this measure is referred to as ion area Savitski, M. M. et al. Delayed Fragmentation and Optimized Isolation Width Settings for Improvement of Protein Identification and Accuracy of Isobaric Mass Tag Quantification on Orbitrap-Type Mass Spectrometers. […]

The target of a further assay is T2, IRAK3 (Homo sapiens, UniProt Q9Y616).
T2 construct: endogenous in cells; host or cells: THP-1
T2 sequence (Q9Y616 1-596): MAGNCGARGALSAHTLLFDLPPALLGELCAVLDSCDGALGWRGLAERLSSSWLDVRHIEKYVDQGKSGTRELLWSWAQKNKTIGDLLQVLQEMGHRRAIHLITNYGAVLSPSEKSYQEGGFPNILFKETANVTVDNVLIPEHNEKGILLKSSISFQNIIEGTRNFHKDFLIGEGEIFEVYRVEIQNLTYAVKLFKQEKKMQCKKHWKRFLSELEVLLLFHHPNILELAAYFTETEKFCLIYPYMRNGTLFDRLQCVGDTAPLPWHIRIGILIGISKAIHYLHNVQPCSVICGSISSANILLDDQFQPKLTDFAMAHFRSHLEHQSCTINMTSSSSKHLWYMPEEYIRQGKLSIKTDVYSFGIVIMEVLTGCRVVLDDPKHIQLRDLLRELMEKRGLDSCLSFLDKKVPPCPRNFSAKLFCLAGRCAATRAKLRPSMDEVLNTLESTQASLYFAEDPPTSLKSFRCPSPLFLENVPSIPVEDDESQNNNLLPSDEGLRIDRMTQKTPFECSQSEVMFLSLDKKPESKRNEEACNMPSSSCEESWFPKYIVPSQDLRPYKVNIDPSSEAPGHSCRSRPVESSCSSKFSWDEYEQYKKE
Description: Expression proteomics in THP-1 cells: IRAK3 protein level. The settings on record: IRAK3, THP-1 cells. How it is done:
as §1, §2, §3, §4, §5

The next assay deals with T3, ABL1 (Homo sapiens, UniProt P00519).
T3 construct: endogenous in cells; host or cells: THP-1
T3 sequence (P00519 whole entry): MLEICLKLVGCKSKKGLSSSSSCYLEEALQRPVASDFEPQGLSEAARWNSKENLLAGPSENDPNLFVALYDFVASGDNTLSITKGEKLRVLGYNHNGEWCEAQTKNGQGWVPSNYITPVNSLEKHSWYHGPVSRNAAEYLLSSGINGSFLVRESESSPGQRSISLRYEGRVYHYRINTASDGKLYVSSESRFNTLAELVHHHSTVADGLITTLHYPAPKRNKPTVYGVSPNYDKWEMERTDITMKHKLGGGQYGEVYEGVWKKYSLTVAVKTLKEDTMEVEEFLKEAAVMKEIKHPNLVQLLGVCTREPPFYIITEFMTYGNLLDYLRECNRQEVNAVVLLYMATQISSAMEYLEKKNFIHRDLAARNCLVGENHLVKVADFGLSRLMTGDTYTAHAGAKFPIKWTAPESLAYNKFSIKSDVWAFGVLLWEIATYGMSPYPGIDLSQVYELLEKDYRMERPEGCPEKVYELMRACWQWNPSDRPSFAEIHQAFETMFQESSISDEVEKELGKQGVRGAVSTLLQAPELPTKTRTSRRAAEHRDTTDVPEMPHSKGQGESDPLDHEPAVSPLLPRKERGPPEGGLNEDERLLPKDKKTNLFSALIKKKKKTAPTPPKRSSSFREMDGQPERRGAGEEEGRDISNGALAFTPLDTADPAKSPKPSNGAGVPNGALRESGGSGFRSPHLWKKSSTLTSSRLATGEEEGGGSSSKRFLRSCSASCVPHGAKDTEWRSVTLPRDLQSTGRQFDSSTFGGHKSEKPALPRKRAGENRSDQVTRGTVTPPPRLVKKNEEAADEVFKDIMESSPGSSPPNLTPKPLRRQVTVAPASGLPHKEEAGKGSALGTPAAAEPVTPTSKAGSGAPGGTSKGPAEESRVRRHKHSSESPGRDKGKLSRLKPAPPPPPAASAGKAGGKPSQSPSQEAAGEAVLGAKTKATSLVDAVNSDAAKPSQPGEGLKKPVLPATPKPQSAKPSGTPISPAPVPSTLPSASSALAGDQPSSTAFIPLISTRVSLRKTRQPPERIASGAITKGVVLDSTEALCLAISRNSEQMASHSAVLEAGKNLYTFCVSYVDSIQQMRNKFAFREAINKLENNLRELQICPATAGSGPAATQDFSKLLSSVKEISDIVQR
Put plainly: Expression proteomics in THP-1 cells: ABL1 protein level. The settings on record: ABL1, THP-1 cells. How it is done:
as §1, §2, §3, §4, §5

Another assay concerns the target T4, MAPK9 (Homo sapiens, UniProt P45984).
T4 construct: endogenous in cells; host or cells: THP-1
Description: Expression proteomics in THP-1 cells: MAPK9 protein level. Conditions: MAPK9, THP-1 cells. How it is done: as §1, §2, §3, §4, §5

For another assay, the target named is T5, AAK1 (Homo sapiens, UniProt Q2M2I8).
T5 construct: endogenous in cells; host or cells: THP-1
T5 sequence (Q2M2I8 whole entry): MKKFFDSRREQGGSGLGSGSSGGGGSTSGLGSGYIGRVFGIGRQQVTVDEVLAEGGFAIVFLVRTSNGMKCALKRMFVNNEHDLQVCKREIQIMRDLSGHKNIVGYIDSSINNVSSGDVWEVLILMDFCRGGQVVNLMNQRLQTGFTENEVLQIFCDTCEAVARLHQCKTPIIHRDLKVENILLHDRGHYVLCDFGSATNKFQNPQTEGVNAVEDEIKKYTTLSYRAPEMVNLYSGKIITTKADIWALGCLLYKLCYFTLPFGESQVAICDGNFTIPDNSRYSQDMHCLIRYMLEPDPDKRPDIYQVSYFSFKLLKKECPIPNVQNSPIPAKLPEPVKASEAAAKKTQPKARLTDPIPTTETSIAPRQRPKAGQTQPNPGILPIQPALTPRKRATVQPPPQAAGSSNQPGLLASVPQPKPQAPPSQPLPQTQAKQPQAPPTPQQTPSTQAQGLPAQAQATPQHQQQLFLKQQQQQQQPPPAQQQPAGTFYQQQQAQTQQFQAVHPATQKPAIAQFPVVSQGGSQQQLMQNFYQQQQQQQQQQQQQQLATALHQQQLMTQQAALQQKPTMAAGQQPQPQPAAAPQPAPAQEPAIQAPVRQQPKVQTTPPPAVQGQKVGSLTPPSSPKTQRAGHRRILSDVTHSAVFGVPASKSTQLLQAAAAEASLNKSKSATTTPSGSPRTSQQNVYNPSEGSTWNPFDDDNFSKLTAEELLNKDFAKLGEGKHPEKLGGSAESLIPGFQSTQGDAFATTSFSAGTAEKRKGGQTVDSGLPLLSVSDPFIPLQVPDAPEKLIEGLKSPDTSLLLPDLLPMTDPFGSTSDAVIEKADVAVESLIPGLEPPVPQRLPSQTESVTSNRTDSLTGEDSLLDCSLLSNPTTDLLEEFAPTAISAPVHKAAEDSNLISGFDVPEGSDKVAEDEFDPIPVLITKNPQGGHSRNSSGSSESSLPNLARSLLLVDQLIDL
Put plainly: Expression proteomics in THP-1 cells: AAK1 protein level. Conditions: AAK1, THP-1 cells. How it is done: as §1, §2, §3, §4, §5

In the next assay the target is T6, PTK2B (Homo sapiens, UniProt Q14289).
T6 construct: endogenous in cells; host or cells: THP-1
T6 sequence (Q14289 whole entry): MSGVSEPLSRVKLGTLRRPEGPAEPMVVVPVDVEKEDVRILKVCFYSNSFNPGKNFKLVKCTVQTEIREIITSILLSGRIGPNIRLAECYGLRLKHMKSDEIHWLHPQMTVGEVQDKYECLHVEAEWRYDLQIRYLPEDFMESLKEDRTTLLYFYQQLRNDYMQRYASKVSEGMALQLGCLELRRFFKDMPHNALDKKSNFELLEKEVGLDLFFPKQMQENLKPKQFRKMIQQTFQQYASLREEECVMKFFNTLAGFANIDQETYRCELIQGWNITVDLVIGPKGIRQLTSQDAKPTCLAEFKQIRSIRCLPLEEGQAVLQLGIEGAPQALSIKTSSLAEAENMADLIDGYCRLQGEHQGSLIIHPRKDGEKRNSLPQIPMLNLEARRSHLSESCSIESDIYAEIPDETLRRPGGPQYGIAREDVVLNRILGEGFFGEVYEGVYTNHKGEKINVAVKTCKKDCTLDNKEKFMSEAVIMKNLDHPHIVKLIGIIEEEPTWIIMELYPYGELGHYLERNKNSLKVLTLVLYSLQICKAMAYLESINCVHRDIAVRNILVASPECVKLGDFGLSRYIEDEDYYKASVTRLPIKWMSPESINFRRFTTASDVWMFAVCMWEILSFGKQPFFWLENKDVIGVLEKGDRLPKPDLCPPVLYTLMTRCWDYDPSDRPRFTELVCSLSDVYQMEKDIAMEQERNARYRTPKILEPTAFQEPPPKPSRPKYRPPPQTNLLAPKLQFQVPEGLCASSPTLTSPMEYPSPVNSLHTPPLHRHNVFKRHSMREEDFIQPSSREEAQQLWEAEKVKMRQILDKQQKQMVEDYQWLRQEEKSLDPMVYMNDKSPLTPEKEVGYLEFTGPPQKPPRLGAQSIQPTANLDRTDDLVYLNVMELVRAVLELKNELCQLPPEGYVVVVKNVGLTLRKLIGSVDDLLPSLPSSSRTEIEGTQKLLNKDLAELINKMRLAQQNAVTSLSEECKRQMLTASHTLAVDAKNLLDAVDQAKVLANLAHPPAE
Description: Expression proteomics in THP-1 cells: PTK2B protein level. How it is done: as §1, §2, §3, §4, §5

T1 sequence (P51812 whole entry): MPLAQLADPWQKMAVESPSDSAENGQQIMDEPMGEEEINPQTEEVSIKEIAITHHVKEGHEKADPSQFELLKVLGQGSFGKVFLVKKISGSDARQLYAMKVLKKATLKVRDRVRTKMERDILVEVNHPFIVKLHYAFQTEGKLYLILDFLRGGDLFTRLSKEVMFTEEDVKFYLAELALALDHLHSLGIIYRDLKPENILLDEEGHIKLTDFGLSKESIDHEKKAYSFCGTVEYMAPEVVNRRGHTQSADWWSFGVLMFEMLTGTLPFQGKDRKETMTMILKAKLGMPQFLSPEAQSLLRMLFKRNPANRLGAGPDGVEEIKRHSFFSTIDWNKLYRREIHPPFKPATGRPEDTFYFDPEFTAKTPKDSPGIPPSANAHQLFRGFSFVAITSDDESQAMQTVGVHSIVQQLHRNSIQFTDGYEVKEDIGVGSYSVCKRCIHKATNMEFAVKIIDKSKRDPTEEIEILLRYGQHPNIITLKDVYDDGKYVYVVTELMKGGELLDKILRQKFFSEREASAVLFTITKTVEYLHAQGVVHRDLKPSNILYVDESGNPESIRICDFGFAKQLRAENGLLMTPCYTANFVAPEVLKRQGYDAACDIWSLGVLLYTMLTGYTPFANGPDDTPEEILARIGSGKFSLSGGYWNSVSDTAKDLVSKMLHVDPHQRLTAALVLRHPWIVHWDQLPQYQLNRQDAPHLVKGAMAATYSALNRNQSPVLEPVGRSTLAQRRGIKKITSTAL
T4 sequence (P45984 whole entry): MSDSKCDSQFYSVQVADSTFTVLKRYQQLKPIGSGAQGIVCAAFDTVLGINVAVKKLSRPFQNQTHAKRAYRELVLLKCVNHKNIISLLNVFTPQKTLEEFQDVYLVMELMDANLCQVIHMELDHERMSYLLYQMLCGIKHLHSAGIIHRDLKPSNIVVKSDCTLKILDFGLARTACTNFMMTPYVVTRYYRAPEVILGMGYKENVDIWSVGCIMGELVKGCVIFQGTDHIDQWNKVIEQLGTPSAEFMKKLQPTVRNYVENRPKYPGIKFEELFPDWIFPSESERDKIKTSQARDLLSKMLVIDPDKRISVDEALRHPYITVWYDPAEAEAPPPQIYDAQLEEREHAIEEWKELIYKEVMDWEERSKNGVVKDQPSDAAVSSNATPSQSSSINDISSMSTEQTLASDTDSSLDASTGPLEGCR

On to `CNC(=O)c1ccccc1Nc1nc(Nc2ccc(N3CCN(CCOCCOCCOCCOCC(=O)Nc4cccc5c4CN(C4CCC(=O)NC4=O)C5=O)CC3)cc2)ncc1Cl.O=CO` (stereo not drawn) [CEREBLON_PROTAC, 14-(4-(4-((5-Chloro-4-((2-(methylcarbamoyl)phenyl)amino)pyrimidin-2-yl)amino)phenyl)piperazin-1-yl)-N-(2-(2,6-dioxopiperidin-3-yl)-1-oxoisoindolin-4-yl)-3,6,9,12-tetraoxatetradecan-1-amide formate], for which the “log2 rel. fc. to vehicle control” value at RPS6KA3 (24 h 0.1 μM, n = 1) is listed as −0.74; at RPS6KA3 (24 h 0.1 μM, n = 2), −0.72; at RPS6KA3 (24 h 1 μM, n = 1), −1.12; at RPS6KA3 (24 h 1 μM, n = 2), −1.11; at IRAK3 (24 h 0.1 μM, n = 1), −2.25; on IRAK3 (24 h 0.1 μM, n = 2), −1.82. In addition, the “log2 rel. fc. to vehicle control” value is given as −1.65 at IRAK3 (24 h 1 μM, n = 1); −1.86 at IRAK3 (24 h 1 μM, n = 2); −0.72 on ABL1 (24 h 0.1 μM, n = 1); −0.70 on ABL1 (24 h 0.1 μM, n = 2); −1.43 at ABL1 (24 h 1 μM, n = 1); −1.63 at ABL1 (24 h 1 μM, n = 2). In addition, the “log2 rel. fc. to vehicle control” value was −0.69 at MAPK9 (24 h 0.1 μM, n = 1); −0.98 at MAPK9 (24 h 0.1 μM, n = 2); −1.83 at MAPK9 (24 h 1 μM, n = 1); −1.75 on MAPK9 (24 h 1 μM, n = 2); −2.34 at AAK1 (24 h 0.1 μM, n = 1); −2.12 at AAK1 (24 h 0.1 μM, n = 2). For the same compound, the “log2 rel. fc. to vehicle control” value at AAK1 (24 h 1 μM, n = 1) is listed as −2.42; on AAK1 (24 h 1 μM, n = 2), −2.56; on PTK2B (24 h 0.1 μM, n = 1), −2.34; on PTK2B (24 h 0.1 μM, n = 2), −2.50; at PTK2B (24 h 1 μM, n = 1), −2.09; on PTK2B (24 h 1 μM, n = 2) it was −2.18.
